Here are results for eleven compounds from ChEMBL document CHEMBL5634077, “Recent advances in 1,2,3- and 1,2,4-triazole hybrids as antimicrobials and their SAR: A critical review” (2023).

What is called MIC is the least concentration at which growth counts as inhibited.

Converted amounts (≈) assume the structure as drawn. Some results are limits rather than exact numbers.

Holding throughout (type): functional
Assay [1] concerns Escherichia coli. Kind of assay: Antibacterial activity against Escherichia coli assessed as diameter of inhibition zone at 100 microg/ml incubated for 18 to 24 hrs by disc-diffusion method. To be noted: time 18-24 hrs, read-out: DIZ.
Assay [2] deals with Staphylococcus aureus. Kind of assay: Antibacterial activity against Staphylococcus aureus assessed as diameter of inhibition zone at 100 microg/ml incubated for 18 to 24 hrs by disc-diffusion method. The following applies: time 18-24 hrs, read-out: DIZ. In general terms: A growth-free zone around the sample is the usual read-out of agar diffusion tests.
In assay [3] the test system is Bacillus subtilis. Kind of assay: Antibacterial activity against Bacillus subtilis assessed as diameter of inhibition zone at 100 microg/ml incubated for 18 to 24 hrs by disc-diffusion method. The following applies: time 18-24 hrs, read-out: DIZ.
In assay [4] the test system is Staphylococcus aureus. Kind of assay: Antibacterial activity against Staphylococcus aureus ATCC 6538P.
Assay [5] deals with Escherichia coli. The assay is described as follows: Antibacterial activity against Escherichia coli ATCC 8739.
The subject of assay [6] is Pseudomonas aeruginosa. The assay is described as follows: Antibacterial activity against Pseudomonas aeruginosa ATCC 9027.
In a further assay the test system is Candida albicans. Kind of assay: Antifungal activity against Candida albicans assessed as fungal growth inhibition.
In a further assay the test system is Aspergillus niger. Kind of assay: Antifungal activity against Aspergillus niger assessed as fungal growth inhibition.
For assay [7], the system named is Bacillus subtilis. The assay is described as follows: Antibacterial activity against Bacillus subtilis MTTC 441 assessed as reduction in bacterial growth.
The subject of assay [8] is Staphylococcus aureus. Kind of assay: Antibacterial activity against Staphylococcus aureus MTCC 3160 assessed as reduction in bacterial growth.
The subject of assay [9] is Staphylococcus aureus. Kind of assay: Antibacterial activity against Staphylococcus aureus assessed as diameter of inhibition zone incubated for 24 hrs by […].
The test system of assay [10] is Staphylococcus aureus. The assay is described as follows: Antibacterial activity against Staphylococcus aureus assessed as reduction in bacterial growth incubated for 24 hrs by broth microdilution method. For orientation: Dilution methods test growth across graded concentrations, often in twofold steps.
Assay [11] concerns Escherichia coli. The assay is described as follows: Antibacterial activity against Escherichia coli assessed as reduction in bacterial growth.
The test system of assay [12] is Bacillus subtilis. Kind of assay: Antibacterial activity against Bacillus subtilis assessed as reduction in bacterial growth.
Assay [13] concerns Pseudomonas aeruginosa. Kind of assay: Antibacterial activity against Pseudomonas aeruginosa assessed as reduction in bacterial growth.
The subject of assay [14] is Escherichia coli. The assay is described as follows: Antibacterial activity against Escherichia coli NCIM-2065 by CLSI based microdilution assay.
Assay [15] relates to Bacillus cereus. The assay is described as follows: Antibacterial activity against Bacillus cereus NCIM-2156 by CLSI based microdilution assay.
Assay [16] relates to Proteus vulgaris. The assay is described as follows: Antibacterial activity against Proteus vulgaris NCIM-2027 by CLSI based microdilution assay.
Assay [17] has as its system Staphylococcus aureus. Kind of assay: Antibacterial activity against Staphylococcus aureus NCIM-2079 by CLSI based microdilution assay.
The test system of assay [18] is Bacillus subtilis. Kind of assay: Antibacterial activity against Bacillus subtilis NCIM-2063 by CLSI based microdilution assay.
Assay [19] concerns Staphylococcus aureus. The assay is described as follows: Antibacterial activity against Staphylococcus aureus assessed as reduction in bacterial growth by broth microdilution method.
Assay [20] relates to Staphylococcus aureus. The assay is described as follows: Antibacterial activity against Staphylococcus aureus.
Assay [21] has as its system Staphylococcus aureus. Kind of assay: Antibacterial activity against Staphylococcus aureus assessed as inhibition of bacterial growth.
A further assay relates to Proteus mirabilis. The assay is described as follows: Antibacterial activity against Proteus mirabilis NCIM 2241 assessed as reduction in bacterial growth incubated for 18 to 24 hrs by broth microdilution method. To be noted: time 18-24 hrs.
The test system of a further assay is Klebsiella pneumoniae. The assay is described as follows: Antibacterial activity against Klebsiella pneumoniae assessed as inhibition of bacterial growth.
Assay [22] relates to Proteus vulgaris. The assay is described as follows: Antibacterial activity against Proteus vulgaris NCIM 2027 assessed as reduction in bacterial growth incubated for 18 to 24 hrs by broth microdilution method. To be noted: time 18-24 hrs.
For assay [23], the system named is Bacillus cereus. Kind of assay: Antibacterial activity against Bacillus cereus NCIM 2156 assessed as reduction in bacterial growth incubated for 18 to 24 hrs by broth microdilution method. To be noted: time 18-24 hrs.
In assay [24] the test system is Bacillus subtilis. The assay is described as follows: Antibacterial activity against Bacillus subtilis NCIM 2063 assessed as reduction in bacterial growth incubated for 18 to 24 hrs by broth microdilution method. To be noted: time 18-24 hrs.
The test system of assay [25] is Staphylococcus epidermidis. The assay is described as follows: Antibacterial activity against Methicillin-resistant Staphylococcus epidermidis assessed as bacterial growth inhibition.
Assay [26] relates to Staphylococcus epidermidis. The assay is described as follows: Antibacterial activity against Methicillin-sensitive Staphylococcus epidermidis assessed as bacterial growth inhibition.
In assay [27] the test system is Staphylococcus aureus. The assay is described as follows: Antibacterial activity against methicillin-sensitive Staphylococcus aureus assessed as reduction in microbial growth incubated for 18 to 24 hrs by serial dilution method. The following applies: time 18-24 hrs.
Assay [28] concerns Staphylococcus aureus. Kind of assay: Antibacterial activity against Staphylococcus aureus assessed as reduction in microbial growth incubated for 18 to 24 hrs by serial dilution method. To be noted: time 18-24 hrs.
In the next assay the test system is Enterococcus faecalis. The assay is described as follows: Antibacterial activity against Enterococcus faecalis assessed as bacterial growth inhibition.
The test system of assay [29] is Staphylococcus aureus. The assay is described as follows: Antibacterial activity against methicillin-resistant Staphylococcus aureus assessed as reduction in microbial growth incubated for 18 to 24 hrs by serial dilution method. The following applies: time 18-24 hrs.
The subject of another assay is Enterococcus faecium. Kind of assay: Antibacterial activity against Enterococcus faecium ATCC 700221.

`Sc1nncn1/N=C/c1cccc(Oc2ccccc2)c1`: the zone of inhibition at 100 µg/mL in the assay with Escherichia coli [1], in the assay with Staphylococcus aureus [2] and with Bacillus subtilis [3] was 15 mm throughout.

On to `CCn1cc(C(=O)O)c(=O)c2cc(F)c(N3CCN(Cn4nc(-c5ccncc5)n(-c5ccc(OC)cc5)c4=S)CC3)cc21`, for which the MIC in the assay on Staphylococcus aureus [4], in the assay on Escherichia coli [5] and in the assay on Pseudomonas aeruginosa [6] was 0.125 µg/mL (≈ 0.203 µM) each time.

`Cc1ccc(NC(=O)Cn2cc(COc3ccc(C(=O)/C=C/c4ccc([N+](=O)[O-])cc4)cc3)nn2)cc1`: the MIC with Candida albicans and in the assay on Aspergillus niger was 125 µM (≈ 62.2 µg/mL) in each case.

Take `O=C(Cn1cc(COc2cccc(/C=N/c3ccc(F)cc3)c2)nn1)Nc1ccc(Br)cc1`: the MIC stood at 12 µM (≈ 6.1 µg/mL) with Bacillus subtilis [7] and 6 µM (≈ 3.05 µg/mL) with Staphylococcus aureus [8].

Take `O=c1cc(OCCn2cc(Cn3cc(Cl)c(=O)n(Cc4cn(CCOc5cc(=O)oc6ccccc56)nn4)c3=O)nn2)c2ccccc2o1`: in the assay on Staphylococcus aureus [9], the “diameter of the inhibition zone (DIZ)” value is given as 26 mm. Besides, in the assay on Staphylococcus aureus [10], the MIC came out at 7.23 µg/mL (≈ 10.6 µM).

Consider `CCCCCCCCCCCCCCCc1nnc(S)n1/N=C\c1cc(OC)c(OC)c(OC)c1`, for which the MIC in the assay on Escherichia coli [11] is 24.7 µg/mL (≈ 48.9 µM); with Bacillus subtilis [12] it was 24.7 µg/mL (≈ 48.9 µM); with Pseudomonas aeruginosa [13], 12.3 µg/mL (≈ 24.4 µM).

In the case of `O=C(CNN1C(=O)CSC1c1ccc(-c2ccc(F)cc2)cc1)NN1C(c2ccc([N+](=O)[O-])cc2)=NNC1S` (stereo unspecified), the MIC in the assay with Escherichia coli [14], in the assay with Bacillus cereus [15], against Proteus vulgaris [16], against Staphylococcus aureus [17] and against Bacillus subtilis [18] was 3.12 µg/mL (≈ 5.51 µM) in each case.

Regarding `CC(C)Cc1ccc(C(C)C(=O)NC(Cc2cn(Cc3cn(CC(=O)Nc4ccccc4Cl)nn3)c3ccccc23)C(=O)NC(Cc2ccccc2)C(N)=O)cc1` (stereo unspecified), the MIC with Staphylococcus aureus [19] turned out to be 25 µg/mL (≈ 31.8 µM).

On to `O=C(O)c1cn(C2CC2)c2cc(N3CCNCC3)c(F)cc2c1=O` [CIPROFLOXACIN], for which the MIC with Staphylococcus aureus [20] came to 9 µM (≈ 2.98 µg/mL); in the assay on Staphylococcus aureus [21], 8 µg/mL (≈ 24.1 µM); in the assay on Proteus mirabilis, 12.5 µg/mL (≈ 37.7 µM); in the assay on Klebsiella pneumoniae, 16 µg/mL (≈ 48.3 µM); in the assay on Bacillus subtilis [12], 18 µg/mL (≈ 54.3 µM); in the assay on Proteus vulgaris [22] it was 12.5 µg/mL (≈ 37.7 µM). Also, the MIC was found to be 3.12 µg/mL (≈ 9.43 µM) in the assay with Bacillus cereus [23], 18 µg/mL (≈ 54.3 µM) in the assay with Pseudomonas aeruginosa [13], 9 µM (≈ 2.98 µg/mL) with Staphylococcus aureus [8] and 12.5 µg/mL (≈ 37.7 µM) in the assay with Bacillus subtilis [24].

Regarding `CCn1cc(C(=O)O)c(=O)c2cc(F)c(N3CCNCC3)cc21` [NORFLOXACIN], the MIC in the assay with Staphylococcus aureus [4], against Escherichia coli [5] and in the assay on Pseudomonas aeruginosa [6] was 0.125 µg/mL (≈ 0.391 µM) throughout.

For `CN[C@H](CC(C)C)C(=O)N[C@H]1C(=O)N[C@@H](CC(N)=O)C(=O)N[C@H]2C(=O)N[C@H]3C(=O)N[C@H](C(=O)N[C@H](C(=O)O)c4cc(O)cc(O)c4-c4cc3ccc4O)[C@H](O)c3ccc(c(Cl)c3)Oc3cc2cc(c3O[C@@H]2O[C@H](CO)[C@@H](O)[C@H](O)[C@H]2O[C@H]2C[C@](C)(N)[C@H](O)[C@H](C)O2)Oc2ccc(cc2Cl)[C@H]1O` [VANCOMYCIN], the MIC in assay [25] came out at 0.5 µg/mL (≈ 0.345 µM); in assay [26], 0.5 µg/mL (≈ 0.345 µM); with Staphylococcus aureus [27], 0.25 µg/mL; with Staphylococcus aureus [28], 0.25 µg/mL; in the assay on Enterococcus faecalis it was 0.5 µg/mL (≈ 0.345 µM); in the assay on Staphylococcus aureus [29] it was 0.25 µg/mL. In the assay on Enterococcus faecium, this compound had a minimal inhibitory concentration (MIC) of more than 88.3 µM.
